# From patent publication US7138411B2, “Substituted benzopyran derivatives for the treatment of inflammation” (G.D. Searle & Co., priority 1997, dated 2006)
# Assays:
# COX-2 [1] = molecular target: T1, COX-2 (UniProt P35354); assay: Fast assay for COX-2 activity (PGE2 ELISA); type: biochemical, human or murine; settings: fast assay: 10 min pre-incubation at 25° C., reaction stopped after two minutes, pH 7.5
# T1 sequence (P35354 1-604): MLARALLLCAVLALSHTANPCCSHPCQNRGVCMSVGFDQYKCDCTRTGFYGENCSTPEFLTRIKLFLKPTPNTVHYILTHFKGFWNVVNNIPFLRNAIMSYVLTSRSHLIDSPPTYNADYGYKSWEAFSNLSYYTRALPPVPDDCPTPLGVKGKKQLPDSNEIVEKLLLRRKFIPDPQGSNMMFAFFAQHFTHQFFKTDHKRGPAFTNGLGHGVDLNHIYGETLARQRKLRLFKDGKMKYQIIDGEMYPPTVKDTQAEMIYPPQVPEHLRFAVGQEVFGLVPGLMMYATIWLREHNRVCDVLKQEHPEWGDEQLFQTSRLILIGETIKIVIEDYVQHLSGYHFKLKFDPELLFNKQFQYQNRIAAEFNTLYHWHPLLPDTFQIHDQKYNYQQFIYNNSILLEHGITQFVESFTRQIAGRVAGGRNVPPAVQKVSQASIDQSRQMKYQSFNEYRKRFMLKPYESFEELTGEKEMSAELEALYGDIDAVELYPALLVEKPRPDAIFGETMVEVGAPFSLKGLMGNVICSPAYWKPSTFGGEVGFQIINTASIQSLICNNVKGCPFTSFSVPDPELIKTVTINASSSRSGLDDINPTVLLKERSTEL
# COX-2 [2] = molecular target: T1, COX-2; assay: Assay for COX-2 activity (PGE2 ELISA); settings: read-out: COX-2 IC50; 10–20 minutes pre-incubation, reaction stopped after ten minutes, pH 8.0
# COX-1 = COX-1 (UniProt P23219); assay: Assay for COX-1 activity (PGE2 ELISA); settings: read-out: COX-1 IC50; 10–20 minutes pre-incubation, reaction stopped after ten minutes, pH 8.0
SMILES,IC50 (COX-2 [1]) [µM],melting point [°C],IC50 (COX-2 [2]) [µM],IC50 (COX-1) [µM]
"O=C(O)C1=Cc2cc(Cl)cc(-c3cccs3)c2OC1C(F)(F)F (stereo not drawn) [Example 116, 6-Chloro-8-(2-thienyl)-2-(trifluoromethyl)-2H-1-benzopyran-3-carboxylic acid]",< 0.1,257.5 to 258.8,< 0.1,< 0.1
"O=C(O)C1=Cc2cc(Cl)cc(-c3ccc(Cl)cc3)c2OC1C(F)(F)F (stereo not drawn) [Example 125, 6-Chloro-8-(4-chlorophenyl)-2-(trifluoromethyl)-2H-1-benzopyran-3-carboxylic acid]",< 0.1,205.5 to 207.3,< 0.1,< 0.1
"O=C(O)C1=Cc2cc(SC(F)(F)F)ccc2OC1C(F)(F)F (stereo not drawn) [Example 91, 2-(Trifluoromethyl)-6-[(trifluoromethyl)thio]-2H-1-benzopyran-3-carboxylic acid]",< 0.1,–,0.2,36
"O=C(O)C1=Cc2cc(Oc3ccccc3)ccc2OC1C(F)(F)F (stereo not drawn) [Example 99, 6-Phenoxy-2-(trifluoromethyl)-2H-1-benzopyran-3-carboxylic acid]",0.2,184.9 to 186.4,< 0.1,23
"O=C(O)C1=Cc2cc(C(F)(F)F)ccc2OC1C(F)(F)F (stereo not drawn) [Example 82, 2,6-Bis(trifluoromethyl)-2H-1-benzopyran-3-carboxylic acid]",–,–,–,5.6
"O=C(O)C1=Cc2cc(C(=O)c3ccccc3)ccc2OC1C(F)(F)F (stereo not drawn) [Example 96, 6-Benzoyl-2-(trifluoromethyl)-2H-1-benzopyran-3-carboxylic acid]",0.2,269.8 to 270.8,0.3,–
"O=C(O)C1=Cc2cc(S(=O)(=O)NCc3ccccc3)cc(Cl)c2OC1C(F)(F)F (stereo not drawn) [Example 57, 8-Chloro-6-[[(phonylmethyl)amino]sulfonyl]-2-trifluoromethyl-2H-1-benzopyran-3-carboxylic acid]",21,–,21,> 100
"O=C(O)C1=Cc2cc(Cl)ccc2O[C@@H]1C(F)(F)F [Example 66, (S)-6-Chloro-2-trifluoromethyl-2H-1-benzopyran-3-carboxylic acid]",82,–,< 0.1,16.9
"COc1ccc(Oc2ccc3c(c2)C=C(C(=O)O)C(C(F)(F)F)O3)cc1 (stereo not drawn) [Example 7, 6-(4-Methoxyphenoxy)-2-(trifluoromethyl)-2H-1-benzopyran-3-carboxylic acid]",–,181.7 to 182.9,< 0.1,1
"O=C(O)C1=Cc2cc(Cl)c(Oc3ccc([N+](=O)[O-])cc3)cc2OC1C(F)(F)F (stereo not drawn) [Example 203, 6-Chloro-7-(4-nitrophenoxy)-2-(trifluoromethyl)-2H-1-benzopyran-3-carboxylic acid]",< 0.1,246.4 to 248.3,–,–
"O=C(O)C1=Cc2cccc(-c3ccccc3)c2OC1C(F)(F)F (stereo not drawn) [Example 21, 8-Phenyl-2-trifluoromethyl-2H-1-benzopyran-3-carboxylic acid]",11,171.6 to 175,–,–
"CC(C)(C)NS(=O)(=O)c1ccc2c(c1)C=C(C(=O)O)C(C(F)(F)F)O2 (stereo not drawn) [Example 54, 6-[(1,1-Dimethylethyl)aminosulfonyl]-2-trifluoromethyl-2H-1-benzopyran-3-carboxylic acid]",19,229.3 to 233.5,–,–
"O=C(O)C1=Cc2ccc(-c3ccccc3)cc2OC1C(F)(F)F (stereo not drawn) [Example 26, 7-Phenyl-2-trifluoromethyl-2H-1-benzopyran-3-carboxylic acid]",> 100,209.4 to 211.7,–,–
"O=C(O)C1=Cc2cc(OC(F)(F)F)ccc2O[C@@H]1C(F)(F)F [Example 67, (S)-6-Trifluoromethoxy-2-trifluoromethyl-2H-1-benzopyran-3-carboxylic acid]",–,–,–,6.7
"Cc1ccc2c(c1C)OC(C(F)(F)F)C(C(=O)O)=C2 (stereo not drawn) [Example 22, 7,8-Dimethyl-2-trifluoromethyl-2H-1-benzopyran-3-carboxylic acid]",> 100,245.2 to 247.3,–,–

# Further lines, results first:
IC50 (COX-2 [1]) [µM],melting point [°C],IC50 (COX-2 [2]) [µM],IC50 (COX-1) [µM],SMILES
< 0.1,220.7 to 221.7,< 0.1,11,"O=C(O)C1=Cc2cc(Br)cc(Cl)c2OC1C(F)(F)F (stereo not drawn) [Example 42, 6-Bromo-8-chloro-2-trifluoromethyl-2H-1-benzopyran-3-carboxylic acid]"
< 0.1,225 to 226,8.2,28,"O=C(O)C1=Cc2cc(Br)cc(Br)c2OC1C(F)(F)F (stereo not drawn) [Example 33, 6,8-Dibromo-2-trifluoromethyl-2H-1-benzopyran-3-carboxylic acid]"
< 0.1,237.8 to 238.8,0.1,63.8,"O=C(O)C1=Cc2cc(Cl)c(Oc3cccnc3)cc2OC1C(F)(F)F (stereo not drawn) [Example 201, 6-Chloro-7-[3-pyridinyloxy]-2-(trifluoromethyl)-2H-1-benzopyran-3-carboxylic acid]"
8.4,203.8 to 205.4,14.7,> 100,"CC(C)(CO)c1cc2c(cc1Cl)C=C(C(=O)O)C(C(F)(F)F)O2 (stereo not drawn) [Example 178, 6-Chloro-7-(2-hydroxy-1,1-dimethylethyl)-2-(trifluoromethyl)-2H-1-benzopyran-3-carboxylic acid]"
0.5,252.7 to 258.6,0.5,37.4,"Cc1cccc(C)c1Oc1cc2c(cc1Cl)C=C(C(=O)O)C(C(F)(F)F)O2 (stereo not drawn) [Example 190, 6-Chloro-7-(2,6-dimethylphenoxy)-2-(trifluoromethyl)-2H-1-benzopyran-3-carboxylic acid]"
< 0.1,–,< 0.1,5,"CSc1ccc2c(c1)C=C(C(=O)O)C(C(F)(F)F)O2 (stereo not drawn) [Example 2, 6-(Methylthio)-2-(trifluoromethyl)-2H-1-benzopyran-3-carboxylic acid]"
< 0.1,–,< 0.1,10,"Cc1cc2c(cc1Cl)C=C(C(=O)O)C(C(F)(F)F)S2 (stereo not drawn) [Example 152, 6-Chloro-7-methyl-2-(trifluoromethyl)-2H-1-benzothiopyran-3-carboxylic acid]"
–,234.2 to 235.4,< 0.1,42.8,"O=C(O)C1=Cc2cc(Cl)c(Oc3ccccn3)cc2OC1C(F)(F)F (stereo not drawn) [Example 202, 6-Chloro-7-[2-pyridinyloxy]-2-(trifluoromethyl)-2H-1-benzopyran-3-carboxylic acid]"
99,> 300,–,–,"O=C(O)C1=Cc2cc(F)cc(Br)c2OC1C(F)(F)F (stereo not drawn) [Example 43, 8-Bromo-6-fluoro-2-trifluoromethyl-2H-1-benzopyran-3-carboxylic acid]"
20,207.6 to 208.6,–,–,"CNS(=O)(=O)c1ccc2c(c1)C=C(C(=O)O)C(C(F)(F)F)O2 (stereo not drawn) [Example 52, 6-(Methylamino)sulfonyl-2-trifluoromethyl-2H-1-benzopyran-3-carboxylic acid]"
0.3,189.6 to 190.9,–,–,"O=C(O)C1=Cc2cc(Br)ccc2OC1C(F)(F)F (stereo not drawn) [Example 13, 6-Bromo-2-trifluoromethyl-2H-1-benzopyran-3-carboxylic acid]"
67,170.7 to 172.1,–,–,"CCc1cc2c(cc1Cl)C=C(C(=O)O)C(C(F)(F)F)O2 (stereo not drawn) [Example 27, 6-Chloro-7-ethyl-2-trifluoromethyl-2H-1-benzopyran-3-carboxylic acid]"
12,190.1 to 191.2,–,–,"O=C(O)C1=Cc2c(Cl)cc(Cl)cc2OC1C(F)(F)F (stereo not drawn) [Example 18, 5,7-Dichloro-2-trifluoromethyl-2H-1-benzopyran-3-carboxylic acid]"
> 100,158.3 to 159.7,–,–,"CC(C)c1ccc2c(c1)OC(C(F)(F)F)C(C(=O)O)=C2 (stereo not drawn) [Example 25, 7-(1-Methylethyl)-2-trifluoromethyl-2H-1-benzopyran-3-carboxylic acid]"
–,204.5 to 206.9,–,43,"COc1cc(Cl)c2c(c1)C=C(C(=O)O)C(C(F)(F)F)O2 (stereo not drawn) [Example 40, 8-Chloro-6-methoxy-2-trifluoromethyl-2H-1-benzopyran-3-carboxylic acid]"
< 0.1,197.2 to 199.1,–,–,"CCc1cc(Cl)cc2c1OC(C(F)(F)F)C(C(=O)O)=C2 (stereo not drawn) [Example 29, 6-Chloro-8-ethyl-2-trifluoromethyl-2H-1-benzopyran-3-carboxylic acid]"
1.9,–,1.7,> 100,"COc1cc(Br)cc2c1OC(C(F)(F)F)C(C(=O)O)=C2 (stereo not drawn) [Example 47, 6-Bromo-8-methoxy-2-trifluoromethyl-2H-1-benzopyran-3-carboxylic acid]"
